# Laboratory results reported in PubChem BioAssay AID1963965 (Molecular Pharmacology Branch, DTP, NCI, 2024).
# Tested on: 996289-038-R-J1-PDC spheroid viability
# Test: Anticancer human tumor 996289-038-R-J1-PDC patient-derived colon adenocarcinoma cell line growth inhibition [PI3K]
# Settings: spheroids with HUVEC and MSC; for IC50: curve of first compound; for viability, T/C: stronger effect = lower value
# Outline: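 Tumor cells grown as multi-cell spheroids with HUVEC endothelial cells and MSC fibroblast-like stroma were treated with targeted agents combined with inavolisib, alpelisib, duvelisib or copanlisib. Doses fell in half-log steps from near clinical Cmax, else from 10 microM. Viability was measured.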
# [1] = second compound 0.00316 µM, first compound 0.0316 µM
# [2] = second compound 0.00316 µM, first compound 0.1 µM
# [3] = second compound 0.01 µM, first compound 0.0316 µM
# [4] = second compound 0.01 µM, first compound 0.1 µM
# [5] = second compound 0.0316 µM, first compound 0.0316 µM
# [6] = second compound 0.0316 µM, first compound 0.1 µM
# [7] = second compound 0.1 µM, first compound 0.0316 µM
# [8] = second compound 0.1 µM, first compound 0.1 µM
# [9] = second compound 0.316 µM, first compound 0.0316 µM
# [10] = second compound 0.316 µM, first compound 0.1 µM
# [11] = second compound 1 µM, first compound 0.0316 µM
# [12] = second compound 1 µM, first compound 0.1 µM
# 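Also: spheroids exposed to compounds for seven days before viability read.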
# 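For viability, T/C in this document: luminescence used as a proxy for viable cell amount; percent viability relative to DMSO vehicle control as 100%.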
compound,measurement,setting,value
CC(C)n1nc(-c2ccc3oc(N)nc3c2)c2c(N)ncnc21 + COc1c(OCCCN2CCOCC2)ccc2c3n(c(=NC(=O)c4cnc(N)nc4)nc12)CCN3,IC50,second compound 0.00316 µM,54.7 nM
same,IC50,second compound 0.01 µM,49.6 nM
same,IC50,second compound 0.0316 µM,31.6 nM
same,IC50,second compound 0.1 µM,7.59 nM
same,IC50,second compound 0.316 µM,< 0.316 nM
same,IC50,second compound 1 µM,< 0.316 nM
same,"viability, T/C","second compound 0.00316 µM, first compound 0.000316 µM",92%
same,"viability, T/C","second compound 0.00316 µM, first compound 0.001 µM",81.8%
same,"viability, T/C","second compound 0.00316 µM, first compound 0.00316 µM",83.2%
same,"viability, T/C","second compound 0.00316 µM, first compound 0.01 µM",81.4%
same,"viability, T/C",[1],63.5%
same,"viability, T/C",[2],34.5%
same,"viability, T/C","second compound 0.01 µM, first compound 0.000316 µM",92.1%
same,"viability, T/C","second compound 0.01 µM, first compound 0.001 µM",79.2%
same,"viability, T/C","second compound 0.01 µM, first compound 0.00316 µM",91.3%
same,"viability, T/C","second compound 0.01 µM, first compound 0.01 µM",82.8%
same,"viability, T/C",[3],65.7%
same,"viability, T/C",[4],25.6%
same,"viability, T/C","second compound 0.0316 µM, first compound 0.000316 µM",69%
same,"viability, T/C","second compound 0.0316 µM, first compound 0.001 µM",73.7%
same,"viability, T/C","second compound 0.0316 µM, first compound 0.00316 µM",77.9%
same,"viability, T/C","second compound 0.0316 µM, first compound 0.01 µM",68.3%
same,"viability, T/C",[5],50.2%
same,"viability, T/C",[6],25.1%
same,"viability, T/C","second compound 0.1 µM, first compound 0.000316 µM",59.1%
same,"viability, T/C","second compound 0.1 µM, first compound 0.001 µM",56.6%
same,"viability, T/C","second compound 0.1 µM, first compound 0.00316 µM",54.1%
same,"viability, T/C","second compound 0.1 µM, first compound 0.01 µM",48.3%
same,"viability, T/C",[7],37.8%
same,"viability, T/C",[8],16.1%
same,"viability, T/C","second compound 0.316 µM, first compound 0.000316 µM",34.8%
same,"viability, T/C","second compound 0.316 µM, first compound 0.001 µM",32.9%
same,"viability, T/C","second compound 0.316 µM, first compound 0.00316 µM",29.9%
same,"viability, T/C","second compound 0.316 µM, first compound 0.01 µM",35%
same,"viability, T/C",[9],24.9%
same,"viability, T/C",[10],10.9%
same,"viability, T/C","second compound 1 µM, first compound 0.000316 µM",20.9%
same,"viability, T/C","second compound 1 µM, first compound 0.001 µM",16.9%
same,"viability, T/C","second compound 1 µM, first compound 0.00316 µM",16.4%
same,"viability, T/C","second compound 1 µM, first compound 0.01 µM",16.6%
same,"viability, T/C",[11],14.4%
same,"viability, T/C",[12],10.3%
CCCS(=O)(=O)Nc1ccc(F)c(C(=O)c2c[nH]c3ncc(-c4ccc(Cl)cc4)cc23)c1F + COc1c(OCCCN2CCOCC2)ccc2c3n(c(=NC(=O)c4cnc(N)nc4)nc12)CCN3,IC50,second compound 0.00316 µM,6030 nM
same,IC50,second compound 0.01 µM,6090 nM
same,IC50,second compound 0.0316 µM,5100 nM
same,IC50,second compound 0.1 µM,1770 nM
same,IC50,second compound 0.316 µM,< 31.6 nM
same,IC50,second compound 1 µM,< 31.6 nM
same,"viability, T/C",[1],98.9%
same,"viability, T/C",[2],81.6%
same,"viability, T/C","second compound 0.00316 µM, first compound 0.316 µM",94.6%
same,"viability, T/C","second compound 0.00316 µM, first compound 1 µM",108%
same,"viability, T/C","second compound 0.00316 µM, first compound 3.16 µM",87.5%
same,"viability, T/C","second compound 0.00316 µM, first compound 10 µM",19.9%
same,"viability, T/C",[3],96.4%
same,"viability, T/C",[4],92.6%
same,"viability, T/C","second compound 0.01 µM, first compound 0.316 µM",87.4%
same,"viability, T/C","second compound 0.01 µM, first compound 1 µM",85.7%
same,"viability, T/C","second compound 0.01 µM, first compound 3.16 µM",90.6%
same,"viability, T/C","second compound 0.01 µM, first compound 10 µM",19.4%
same,"viability, T/C",[5],71%
same,"viability, T/C",[6],78.2%
same,"viability, T/C","second compound 0.0316 µM, first compound 0.316 µM",72.5%
same,"viability, T/C","second compound 0.0316 µM, first compound 1 µM",80.2%
same,"viability, T/C","second compound 0.0316 µM, first compound 3.16 µM",71.1%
same,"viability, T/C","second compound 0.0316 µM, first compound 10 µM",19.8%
same,"viability, T/C",[7],63.5%
same,"viability, T/C",[8],49.7%
same,"viability, T/C","second compound 0.1 µM, first compound 0.316 µM",66.9%
same,"viability, T/C","second compound 0.1 µM, first compound 1 µM",53.4%
same,"viability, T/C","second compound 0.1 µM, first compound 3.16 µM",44.4%
same,"viability, T/C","second compound 0.1 µM, first compound 10 µM",12.2%
same,"viability, T/C",[9],32.3%
same,"viability, T/C",[10],42.4%
same,"viability, T/C","second compound 0.316 µM, first compound 0.316 µM",35.9%
same,"viability, T/C","second compound 0.316 µM, first compound 1 µM",36.7%
same,"viability, T/C","second compound 0.316 µM, first compound 3.16 µM",26%
same,"viability, T/C","second compound 0.316 µM, first compound 10 µM",8.03%
same,"viability, T/C",[11],19.9%
same,"viability, T/C",[12],22.4%
same,"viability, T/C","second compound 1 µM, first compound 0.316 µM",20.2%
same,"viability, T/C","second compound 1 µM, first compound 1 µM",15.9%
same,"viability, T/C","second compound 1 µM, first compound 3.16 µM",14%
same,"viability, T/C","second compound 1 µM, first compound 10 µM",6.42%
